# Tests used:
# [1] = Particle size of API and excipients; type: physicochemical; conditions: API/excipient powder
# Excerpt: Microscopy images showing the morphology of IBU and DIZ particles are shown in FIGS. 29A and 29B, respectively. IBU and DIZ both are fine particles with a d50 of 21.87 μm and 23.12 μm, respectively.
# [2] = Bulk and flow properties of powders (FT4 Powder Rheometer); type: physicochemical; conditions: API/excipient powder
compound,measurement,setting,value
OC[C@H]1O[C@@H](O[C@H]2[C@H](O)[C@@H](O)C(O)O[C@@H]2CO)[C@H](O)[C@@H](O)[C@H]1O (some centres unmarked) [Anhydrous lactose],Particle size d10,[1],26.03 μm
same,Particle size d50,[1],188.75 μm
same,Particle size d90,[1],425.90 μm
same,Bulk density,[2],0.74 g/mL
same,Compressibility,[2],13.10%
same,Flow function coefficient (ffc),[2],5.69
"CN1C(=O)CN=C(c2ccccc2)c2cc(Cl)ccc21 [Diazepam (DIZ), Diazepam, reference compound]",Particle size d10,[1],5.74 μm
same,Particle size d50,[1],23.12 μm
same,Particle size d90,[1],110.75 μm
same,Compressibility,[2],32.73%
same,Flow function coefficient (ffc),[2],2.78
"CC(C)Cc1ccc(C(C)C(=O)O)cc1 (centres unmarked) [Ibuprofen (IBU), Ibuprofen, reference compound]",Particle size d10,[1],4.86 μm
same,Particle size d50,[1],21.87 μm
same,Particle size d90,[1],75.31 μm
same,Bulk density,[2],0.53 g/mL
same,Compressibility,[2],25.07%
same,Flow function coefficient (ffc),[2],3.87
Magnesium stearate,Particle size d10,[1],2.76 μm
same,Particle size d50,[1],6.86 μm
same,Particle size d90,[1],15.10 μm
same,Bulk density,[2],0.31 g/mL
same,Compressibility,[2],38.97%
same,Flow function coefficient (ffc),[2],5.18

# — US11020352B2, “Systems and methods for the fabrication of tablets, including pharmaceutical tablets” (Massachusetts Institute of Technology, priority 2017, dated 2021)
